# US5929110A, “Fatty acid analogs and prodrugs” (G. D. Searle & Co., priority 1998, dated 1999)
# Tested on: HIV-1
# Test: inhibition of HIV-1; reduction of cytopathogenic effect in virus-infected Leu-3a-positive CEM cells (MTT assay)
# Format: cell-based, strain HTVL-IIIB
# Details: Human immunodeficiency virus 1, CCRF-CEM, multiplicity of infection 0.1, MTT read on 7th to 9th day post-infection
# Description: Inhibitory activity against HIV-1 was shown by tests involving plating of susceptible human host cells which are syncytium-sensitive with and without virus in microculture plates, adding various concentrations of the test compound, incubating the plates for 7 to 9 days (during which time infected, non-drug treated control cells are largely or totally destroyed by the virus), and then determining the remaining number of viable cells with a colorometric endpoint.
# Various illustrative compounds synthesized above were tested for inhibition of HIV-1 in a test which measured reduction of cytopathogenic effect in virus-infected syncytium-sensitive Leu-3a-positive CEM cells grown in tissue culture as follows:
# Tissue culture plates were incubated at 37° C. in a humidified, 5% CO2 atmosphere and observed microscopically for toxicity and/or cytopathogenic effect (CPE). At 1 hour prior to infection each test article was prepared from the frozen stock, and a 20 μl volume of each dilution (prepared as a 10× concentration) was added to the appropriate wells of both infected and uninfected cells.
# Assays were done in 96-well tissue culture plates. CEM cells were treated with polybrene at a concentration of 2 μg/ml, and an 80 μl volume of cells (1×10^4 cells) was dispensed into each well. A 100 μl volume of each test article dilution (prepared as a 2× concentration) was added to 5 wells of cells, and the cells were incubated at 37° C. for 1 hour. A frozen culture of HIV-1, strain HTVL-IIIB, was diluted in culture medium to a concentration of 5×10^4 TCID50 per ml, and a 20 μl volume (containing 10^3 TCID50 of virus) was added to 3 of the wells for each test article concentration. […] A 20 μl volume of normal culture medium was added to the remaining wells to allow evaluation of cytotoxicity. Each plate contained 6 wells of untreated, uninfected, cell control samples and 6 wells of untreated, infected, virus control samples.
# On the 7th to 9th day post-infection, the cells in each well were resuspended and a 100 μl sample of each cell suspension was removed for use in an MTT assay. A 20 μl volume of a 5 mg/ml solution of 3-(4,5-dimethylthiazol-2-yl)-2,5-diphenyltetrazolium bromide (MTT) was added to each 100 μl cell suspension, and the cells were incubated at 37° C. in 5% CO2 for 4 hours. […] A 100 μl volume of a solution of 10% sodium dodecyl sulfate in 0.01N hydrochloric acid was added to each sample, and the samples were incubated overnight. The absorbance at 590 nm was determined for each sample using a Molecular Devices Vmax microplate reader. This assay detects drug-induced suppression of viral CPE, as well as drug cytotoxicity, by measuring the generation of MTT-formazan by surviving cells.
row,Structure (SMILES),EC50 [µM]
1,"CCCCCCCCCCOCCC(=O)N[C@@H](Cc1ccccc1)C(=O)OCC [Example 55, N-(3-(Decycloxy)-1-oxopropyl]-L-phenylalanine, Ethyl ester]",> 240
2,"CCOC(=O)CNC(=O)CCCCCCCCCCCOC [Example 21, N-(12-Methoxy-1-oxododecyl)-glycine, Ethyl ester]",8.6
3,"CCOC(=O)[C@@H](CCC(=O)OCc1ccccc1)NC(=O)CCCCCCCCCCCOC [Example 62, N-(12-methoxy-1-oxododecyl)-D-glutamic acid, 1-Ethyl 5-(Phenylmethyl) ester]",> 205
4,"COCCCCCCCCCCCC(=O)O [Example 1, 12-Methoxydodecanoic Acid]",4.3
5,"CCOC(=O)[C@@H](NC(=O)CCCCCCCCCCCOC)[C@@H](C)OCc1ccccc1 [Example 77, N-(12-methoxy-1-oxododecyl)-O-(phenylmethyl)-L-threonine, Ethyl ester]",11.8
6,"CCCCCCCCCCOCCC(=O)O [Example 7, 3-(Decyloxy)propanoic Acid]",18.7
7,"CCOC(=O)C(CNC(=O)CCCCCCCCCCCOC)Cc1ccccc1 (stereo not drawn) [Example 42, Ethyl α-[[(12-Methoxy-1-oxododecyl)amino]methyl]benzenepropanoate]",6.4
8,"CCOC(=O)[C@@H](Cc1c[nH]c2ccccc12)NC(=O)CCCCCCCCCCCOC [Example 74, N-(12-Methoxy-1-oxododecyl)-D-tryptophan, Ethyl ester]",> 221
9,"COCCCCCCCCCCCCO [Example 88, 12-Methoxydodecanol]",> 450
10,"COCCCCCCCCCCCc1nnn(Cc2ccccc2)n1 [Example 87B, 5-(11-Methoxyundecyl)-2-(phenylmethyl)-2H-tetrazole]",> 290
11,"COCCCCCCCCCCCC(C)=O [Example 89, 13-Methoxy-2-tridecanone]",> 430
12,"CCOC(=O)[C@H](CCCCNC(=O)OCc1ccccc1Cl)NC(=O)CCCCCCCCCCCOC [Example 65, N6-[[(2-Chlorophenyl)methoxy]carbonyl]-N2-(12-methoxy-1oxododecyl)-L-lysine, Ethyl ester]",7.4
13,"CCCCCCCCCCOCCC#N [Example 6, 3-(Decyloxy)propanenitrile]",> 470
14,"CCOC(=O)CCCCCCCCCCCOC [Example 9, Ethyl 12-Methoxydodecanoate]",16.6
15,"CCCCCCCCCCOCCC(=O)N(CC)CC [Example 19, 3-(Decyloxy)-N,N-diethylpropanamide]",> 350
16,"COCCCCCCCCCCCC(=O)NCCc1ccccc1 [Example 16, 12-Methoxy-N-(2-phenylethyl) dodecanamide]",4.5
17,"CCOC(=O)[C@@H](C)NC(=O)CCCCCCCCCCCOC [Example 34, N-(12-Methoxy-1-oxododecyl)-D-alanine, Ethyl ester]",> 300
18,"CCOC(=O)CNC(=O)CNC(=O)CCCCCCCCCCCOC [Example 24, N-[N-(12-Methoxy-1-oxododecyl)glycyl]glycine, Ethyl ester]",> 260
19,"CCOC(=O)[C@@H](NC(=O)CCCCCCCCCCCOC)[C@@H](C)CC [Example 45, N-(12-Methoxy-1-oxododecyl)-L-isoleucine, Ethyl ester]",< 2.7
20,"CCCCCCCCCCOCCC(=O)NCC(=O)OCC [Example 29, N-[3-(Decyloxy)-1-oxopropyl]glycine, Ethyl ester]",> 315
21,"CCn1nnc(CCCCCCCCCCCOC)n1 [Example 86B, 2-Ethyl-5-(11-methoxyundecyl)-2H-tetrazole]",> 350
22,"CCOC(=O)CN(CC(=O)OCC)C(=O)CCCCCCCCCCCOC [Example 25, N-(2-Ethoxy-2-oxoethyl)-N-(12-methoxy-1-oxododecyl)glycine, Ethyl ester]",> 240
23,"CCOC(=O)[C@H](CCC(=O)OCc1ccccc1)NC(=O)CCCCCCCCCCCOC [Example 59, N-(12-methoxy-1-oxododecyl)-L glutamic acid, 1-Ethyl 5-(Phenylmethyl) ester]",7.3
